The text below walks through data of US10189795B2, “Aryl amine substituted quinoxaline used as anticancer drugs” (priority 2014, dated 2019).

Test [1] deals with NCI-H226. In words: cell viability of NCI-H226 cells, 1 and 10 uM. In kind it is cell-based. The note with it: Homo sapiens.
Test [2] deals with Sk-Hep1. In words: MTT cell viability, Sk-Hep1. Type of test: cell-based. The note with it: Homo sapiens, 48 h. The procedure: The Sk-Hep1, PLC/PRF/5 (PLC) and Hep3B cell lines were obtained from American Type Culture Collection (ATCC; Manassas, Va., USA). The Huh-7 HCC cell line was obtained from the Health Science Research Resources Bank (HSRRB; Osaka, Japan; JCRB0403). Cells were maintained in DMEM supplemented with 10% FBS in a 37° C. humidified incubator in an atmosphere of 5% CO^2 in air. Other cell lines, including non-small cell lung cancer cells e.g. H358, H460 and A549 and human squamous cell carcinoma cells e.g. NCI-1703, H2170, H520, SW900 and NCI—H226 all obtained from American Type Culture Collection (Manassas, Va.) were also provided for the assays describes below.
(§1) The present invention compared the antitumor activities of an erlotinib derivative of the present invention, TD-52, and erlotinib on HCC cells. The present invention used MTT assay to evaluate cell viability after exposure to TD-52 or erlotinib for 48 h. […] To further evaluate the cell apoptosis induced by the treatments, all four cell lines were treated with TD-52 and erlotinib at the indicated concentration for 24 h and the percentages of sub-G1 cells were determined by flow cytometry (FIG. 1B).

The test system of test [3] is HCC cells (HA22T, Hep3B, PLC5, Sk-Hep1). Put plainly: annexin-V/PI double-staining assay of apoptotic and necrotic cell death. The note with it: 2 μM or higher doses, 48 h, four HCC cell lines. In kind it is cell-based. The procedure:
The numbers of apoptotic cells after treatment with DMSO, sorafenib or the erlotinib derivatives of the present invention were assessed by flow cytometry (sub-G1). Annexin-V/propidium iodidie (PI) double-staining assay was used to determine numbers of both apoptotic and necrotic cells. For above tow assays, HCC cells were harvested after the erlotinib derivatives of the present invention treatment and incubated with PI alone for sub-G1 assay and in combination with annexin-V—FITC. Analysis of cell composition was performed by flow cytometry. The erlotinib derivatives of the present invention-induced apoptotic cell death was assessed by western blot analysis of activated caspases and cleaved PARP, and cell death enzyme-linked immunosorbent assay (ELISA) for cytoplasmic histone-associated DNA fragments (Roche, Indianapolis, Ind., USA). The effect of co-treatment with the erlotinib derivatives of the present invention and z-VAD-fmk, the caspase inhibitor, were assessed by western blot analysis and flow cytometry.
To better characterize the antitumor properties of TD-52, annexin-V/propidium iodide (PI) double-staining assay, western blot analysis, cell cycle analysis and DNA fragmentation assay were performed (FIGS. 1C-1E). At dose increase, the proportion of apoptosis and necrosis of cancer cell ware analyzed by annexin-V—FITC/PI double-staining assay. […]

Test [4] concerns HA22T. Put plainly: MTT cell viability, HA22T. Type of test: cell-based. The conditions noted are these: Homo sapiens, 48 h. The procedure:
as §1

Test [5] has as its system A549. Put plainly: cell viability of A549 cells, 1 and 10 uM. Type of test: cell-based. The note with it: Homo sapiens.
Test [6] deals with H520. In words: cell viability of H520 cells, 1 and 10 uM. In kind it is cell-based. The note with it: Homo sapiens, NCI-H520.
In test [7] the target is T1, SET-PP2Ac binding (Homo sapiens, UniProt Q01105).
T1 construct: His; purchased Genway (SET-His); Abnova (PP2Ac-GST) GWB-ATG319; H00005515
T1 sequence (Q01105 1-277 isoform Q01105-2): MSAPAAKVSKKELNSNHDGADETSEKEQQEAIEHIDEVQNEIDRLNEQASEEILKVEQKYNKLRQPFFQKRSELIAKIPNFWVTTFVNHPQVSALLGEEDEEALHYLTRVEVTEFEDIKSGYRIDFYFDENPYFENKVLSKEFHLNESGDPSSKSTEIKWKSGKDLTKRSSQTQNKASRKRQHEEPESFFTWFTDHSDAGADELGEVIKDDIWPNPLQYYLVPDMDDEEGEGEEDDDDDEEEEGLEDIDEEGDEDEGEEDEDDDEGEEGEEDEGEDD
Put plainly: disruption of SET-PP2Ac binding (surface plasmon resonance, co-IP). A general note: SPR reads the build-up and loss of mass on a sensor chip optically.

As for `C#Cc1cccc(Nc2nc3ccccc3nc2Nc2cccc(C#C)c2)c1` [TD52, N^2,N^3-bis(3-ethynylphenyl)quinoxaline-2,3-diamine], the viability (as a rule, a read-out of living cells in per cent, often relative to untreated cells) at 1 µM stood at 79.5 ± 6.9% in test [1] (1 uM), 71.5 ± 6% in test [5] (1 uM) and 95.8 ± 1.26% in test [6] (1 uM). For the same compound, the viability at 10 µM in test [1] (10 uM) turned out to be 5.3 ± 0.1%; in test [5] (10 uM) it was 9.7 ± 0.9%; in test [6] (10 uM), 14 ± 0.14%. Also, the figures for the IC50 in test [2] and in test [4] were 1200 nM and 900 nM, respectively. Also, in test [3], the “extents of cancer cell death, included apoptotic and necrotic death” value is reported as no less than 50%. Further, the “minimal concentration to disrupt SET-PP2Ac binding” value in test [7] fell in the range of 100 to 200 nM.
